Results: the kinase profiling compilation of Christmann-Franck et al. (2016)

Legend:
Conditions in all cases: compound 10.0 µM
[1] = biological target: PASK (human) (UniProt Q96RG2)
[2] = biological target: STK38 (human) (UniProt Q15208)
[3] = biological target: PRKCH (human) (UniProt P24723)
[4] = biological target: STK3 (human) (UniProt Q13188)
[5] = biological target: DYRK2 (human) (UniProt Q92630)
[6] = biological target: AXL (human) (UniProt P30530)
[7] = biological target: LTK (human) (UniProt P29376)
[8] = biological target: MAP4K2 (human) (UniProt Q12851)
Sequence of MAP4K2 (human) (Q12851 whole entry, looked up): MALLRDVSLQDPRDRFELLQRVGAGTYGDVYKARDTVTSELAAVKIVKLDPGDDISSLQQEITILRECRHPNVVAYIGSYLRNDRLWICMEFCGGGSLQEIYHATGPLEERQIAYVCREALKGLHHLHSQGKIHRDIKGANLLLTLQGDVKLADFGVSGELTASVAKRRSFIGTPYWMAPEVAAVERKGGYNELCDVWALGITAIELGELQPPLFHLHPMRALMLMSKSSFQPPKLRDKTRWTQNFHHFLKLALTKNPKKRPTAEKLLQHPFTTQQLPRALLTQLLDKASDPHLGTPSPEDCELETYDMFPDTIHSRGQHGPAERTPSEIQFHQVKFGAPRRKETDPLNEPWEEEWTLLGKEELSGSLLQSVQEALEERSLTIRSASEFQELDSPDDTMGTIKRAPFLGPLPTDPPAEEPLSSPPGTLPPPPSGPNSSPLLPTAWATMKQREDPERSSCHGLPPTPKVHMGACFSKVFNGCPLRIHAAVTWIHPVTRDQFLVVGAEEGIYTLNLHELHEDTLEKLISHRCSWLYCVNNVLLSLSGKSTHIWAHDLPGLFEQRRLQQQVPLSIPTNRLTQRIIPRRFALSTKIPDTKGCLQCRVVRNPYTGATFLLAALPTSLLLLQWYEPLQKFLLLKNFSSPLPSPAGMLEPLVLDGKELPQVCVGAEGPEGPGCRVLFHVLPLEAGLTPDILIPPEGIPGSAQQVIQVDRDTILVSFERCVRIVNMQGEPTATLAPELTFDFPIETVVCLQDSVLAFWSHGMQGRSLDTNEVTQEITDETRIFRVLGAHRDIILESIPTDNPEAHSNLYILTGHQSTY

[9] = biological target: MARK4 (human) (UniProt Q96L34)
[10] = biological target: CLK4 (human) (UniProt Q9HAZ1)
[11] = biological target: MKNK1 (human) (UniProt Q9BUB5)
Sequence of MKNK1 (human) (Q9BUB5 whole entry, looked up): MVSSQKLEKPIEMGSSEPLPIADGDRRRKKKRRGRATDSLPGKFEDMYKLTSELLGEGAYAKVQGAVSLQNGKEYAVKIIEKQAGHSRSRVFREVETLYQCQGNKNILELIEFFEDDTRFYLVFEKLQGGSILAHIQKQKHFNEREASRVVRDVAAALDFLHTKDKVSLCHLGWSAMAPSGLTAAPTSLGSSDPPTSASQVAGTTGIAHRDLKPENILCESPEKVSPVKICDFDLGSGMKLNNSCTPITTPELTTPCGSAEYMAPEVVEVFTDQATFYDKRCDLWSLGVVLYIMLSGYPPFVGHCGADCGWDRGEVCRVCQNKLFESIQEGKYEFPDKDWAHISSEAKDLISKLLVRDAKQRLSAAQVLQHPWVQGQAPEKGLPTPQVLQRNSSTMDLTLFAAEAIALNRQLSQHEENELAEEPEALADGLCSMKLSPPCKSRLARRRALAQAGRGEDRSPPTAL

[12] = biological target: DAPK1 (human) (UniProt P53355)
[13] = biological target: EPHB1 (human) (UniProt P54762)
[14] = biological target: BMX (human) (UniProt P51813)
[15] = biological target: CSNK1G2 (human) (UniProt P78368)
[16] = biological target: DYRK1B (human) (UniProt Q9Y463)
[17] = biological target: MERTK (human) (UniProt Q12866)
[18] = biological target: AURKC (human) (UniProt Q9UQB9)
[19] = biological target: MARK1 (human) (UniProt Q9P0L2)
Sequence of MARK1 (human) (Q9P0L2 whole entry, looked up): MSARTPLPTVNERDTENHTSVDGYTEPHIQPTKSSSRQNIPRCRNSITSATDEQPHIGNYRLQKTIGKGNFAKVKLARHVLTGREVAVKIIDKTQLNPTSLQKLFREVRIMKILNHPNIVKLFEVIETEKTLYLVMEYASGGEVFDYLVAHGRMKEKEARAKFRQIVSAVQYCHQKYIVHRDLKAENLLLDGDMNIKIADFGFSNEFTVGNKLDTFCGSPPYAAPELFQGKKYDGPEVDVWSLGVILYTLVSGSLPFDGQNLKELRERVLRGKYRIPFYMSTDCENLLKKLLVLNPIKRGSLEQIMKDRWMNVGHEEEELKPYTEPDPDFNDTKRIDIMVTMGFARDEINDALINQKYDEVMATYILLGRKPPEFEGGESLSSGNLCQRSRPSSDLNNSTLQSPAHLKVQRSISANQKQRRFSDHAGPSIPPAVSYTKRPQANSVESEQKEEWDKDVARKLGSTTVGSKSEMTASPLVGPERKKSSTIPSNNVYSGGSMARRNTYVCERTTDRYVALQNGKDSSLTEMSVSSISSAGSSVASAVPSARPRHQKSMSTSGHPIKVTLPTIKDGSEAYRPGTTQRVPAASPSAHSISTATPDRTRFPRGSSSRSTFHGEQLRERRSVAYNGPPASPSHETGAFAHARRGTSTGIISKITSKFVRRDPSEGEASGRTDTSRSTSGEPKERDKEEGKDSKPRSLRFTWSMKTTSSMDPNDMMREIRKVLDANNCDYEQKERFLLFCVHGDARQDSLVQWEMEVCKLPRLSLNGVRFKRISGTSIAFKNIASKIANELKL

[20] = biological target: PAK3 (human) (UniProt O75914)
[21] = biological target: NTRK3 (human) (UniProt Q16288)
[22] = biological target: PRKCE (human) (UniProt Q02156)
[23] = biological target: GRK6 (human) (UniProt P43250)
Sequence of GRK6 (human) (P43250 whole entry, looked up): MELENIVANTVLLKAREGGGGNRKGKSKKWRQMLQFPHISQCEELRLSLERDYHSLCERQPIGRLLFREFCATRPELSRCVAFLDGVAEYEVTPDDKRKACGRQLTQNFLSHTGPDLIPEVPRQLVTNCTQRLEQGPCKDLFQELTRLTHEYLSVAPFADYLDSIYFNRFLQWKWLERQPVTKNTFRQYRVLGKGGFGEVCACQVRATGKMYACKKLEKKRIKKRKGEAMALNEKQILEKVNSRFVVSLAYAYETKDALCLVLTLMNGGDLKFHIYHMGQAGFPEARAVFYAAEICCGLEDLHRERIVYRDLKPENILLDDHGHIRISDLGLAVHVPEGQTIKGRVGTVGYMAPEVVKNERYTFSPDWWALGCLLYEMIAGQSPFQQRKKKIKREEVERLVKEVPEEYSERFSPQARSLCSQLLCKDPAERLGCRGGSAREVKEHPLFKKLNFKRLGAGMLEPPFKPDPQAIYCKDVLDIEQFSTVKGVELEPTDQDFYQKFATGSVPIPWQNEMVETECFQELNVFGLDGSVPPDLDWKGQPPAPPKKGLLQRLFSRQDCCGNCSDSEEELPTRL

[24] = biological target: CSNK1A1 (human) (UniProt P48729)
[25] = biological target: GSK3A (human) (UniProt P49840)
[26] = biological target: CDK5 CDK5R1 p25 (human) (UniProt Q15078+Q00535)
[27] = biological target: TGFBR1 (human) (UniProt P36897)
[28] = biological target: MAP4K5 (human) (UniProt Q9Y4K4)
[29] = biological target: CDC42BPB (human) (UniProt Q9Y5S2)
[30] = biological target: ROCK1 (human) (UniProt Q13464)
[31] = biological target: PKN2 (human) (UniProt Q16513)
[32] = biological target: CSNK1G1 (human) (UniProt Q9HCP0)
[33] = biological target: RPS6KA2 KD1 KD2 (human) (UniProt Q15349)
[34] = biological target: CDK9 CCNK (human) (UniProt P50750+O75909)
[35] = biological target: CDC42BPA (human) (UniProt Q5VT25)
[36] = biological target: CAMK2A (human) (UniProt Q9UQM7)
[37] = biological target: GSG2 (human) (UniProt Q8TF76)
[38] = biological target: CAMK1 (human) (UniProt Q14012)
Sequence of CAMK1 (human) (Q14012 whole entry, looked up): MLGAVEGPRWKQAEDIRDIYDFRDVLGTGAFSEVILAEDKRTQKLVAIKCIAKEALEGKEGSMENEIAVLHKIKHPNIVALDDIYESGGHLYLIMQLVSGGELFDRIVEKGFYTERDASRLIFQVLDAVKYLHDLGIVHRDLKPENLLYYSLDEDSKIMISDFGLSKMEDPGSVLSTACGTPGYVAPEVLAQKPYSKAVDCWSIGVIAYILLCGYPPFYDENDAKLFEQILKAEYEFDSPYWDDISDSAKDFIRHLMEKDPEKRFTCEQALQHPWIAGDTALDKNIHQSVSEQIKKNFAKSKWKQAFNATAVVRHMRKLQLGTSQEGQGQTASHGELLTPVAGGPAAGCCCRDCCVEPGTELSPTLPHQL

[39] = biological target: TGFBR2 (human) (UniProt P37173)
[40] = biological target: JAK1 JH1 JH2 (human) (UniProt P23458)
[41] = biological target: SGK1 (human) (UniProt O00141)
Sequence of SGK1 (human) (O00141 whole entry, looked up): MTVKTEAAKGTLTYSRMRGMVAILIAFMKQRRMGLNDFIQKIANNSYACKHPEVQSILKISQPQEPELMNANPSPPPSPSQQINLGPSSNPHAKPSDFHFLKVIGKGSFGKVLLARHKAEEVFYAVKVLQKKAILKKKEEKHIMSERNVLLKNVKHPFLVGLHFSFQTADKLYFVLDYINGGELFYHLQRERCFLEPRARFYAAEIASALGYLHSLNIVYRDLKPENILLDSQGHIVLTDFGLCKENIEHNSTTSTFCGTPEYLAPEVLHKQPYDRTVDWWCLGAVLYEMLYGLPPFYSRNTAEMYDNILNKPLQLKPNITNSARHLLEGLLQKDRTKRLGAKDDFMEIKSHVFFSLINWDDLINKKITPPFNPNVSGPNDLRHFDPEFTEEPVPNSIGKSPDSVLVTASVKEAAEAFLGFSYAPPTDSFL

[42] = biological target: DYRK3 (human) (UniProt O43781)
[43] = biological target: PRKACA (human) (UniProt P17612)
[44] = biological target: AURKB (human) (UniProt Q96GD4)
Sequence of AURKB (human) (Q96GD4 whole entry, looked up): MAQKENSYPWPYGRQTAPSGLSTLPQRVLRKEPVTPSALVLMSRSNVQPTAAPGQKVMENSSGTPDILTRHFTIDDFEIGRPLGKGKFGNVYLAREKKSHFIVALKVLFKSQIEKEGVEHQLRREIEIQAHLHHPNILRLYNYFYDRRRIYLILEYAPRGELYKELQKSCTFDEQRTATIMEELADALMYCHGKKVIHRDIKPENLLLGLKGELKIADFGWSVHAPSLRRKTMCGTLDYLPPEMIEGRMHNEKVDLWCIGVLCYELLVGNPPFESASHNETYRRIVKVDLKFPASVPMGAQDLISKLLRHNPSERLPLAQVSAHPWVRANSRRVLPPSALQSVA

Sequence of STK38 (human) (Q15208 whole entry, looked up): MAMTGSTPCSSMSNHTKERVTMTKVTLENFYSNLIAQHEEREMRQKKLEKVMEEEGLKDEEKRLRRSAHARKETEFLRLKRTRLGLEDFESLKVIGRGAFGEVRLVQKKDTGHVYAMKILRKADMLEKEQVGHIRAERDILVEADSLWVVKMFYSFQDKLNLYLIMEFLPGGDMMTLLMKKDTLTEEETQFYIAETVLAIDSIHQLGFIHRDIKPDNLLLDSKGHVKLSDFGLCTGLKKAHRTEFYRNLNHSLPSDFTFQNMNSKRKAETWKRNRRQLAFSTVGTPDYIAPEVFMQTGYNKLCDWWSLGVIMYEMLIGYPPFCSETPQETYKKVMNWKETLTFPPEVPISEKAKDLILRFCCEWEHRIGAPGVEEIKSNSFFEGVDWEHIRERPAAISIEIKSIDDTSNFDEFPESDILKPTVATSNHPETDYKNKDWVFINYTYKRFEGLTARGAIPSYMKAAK
Sequence of DYRK2 (human) (Q92630 whole entry, looked up): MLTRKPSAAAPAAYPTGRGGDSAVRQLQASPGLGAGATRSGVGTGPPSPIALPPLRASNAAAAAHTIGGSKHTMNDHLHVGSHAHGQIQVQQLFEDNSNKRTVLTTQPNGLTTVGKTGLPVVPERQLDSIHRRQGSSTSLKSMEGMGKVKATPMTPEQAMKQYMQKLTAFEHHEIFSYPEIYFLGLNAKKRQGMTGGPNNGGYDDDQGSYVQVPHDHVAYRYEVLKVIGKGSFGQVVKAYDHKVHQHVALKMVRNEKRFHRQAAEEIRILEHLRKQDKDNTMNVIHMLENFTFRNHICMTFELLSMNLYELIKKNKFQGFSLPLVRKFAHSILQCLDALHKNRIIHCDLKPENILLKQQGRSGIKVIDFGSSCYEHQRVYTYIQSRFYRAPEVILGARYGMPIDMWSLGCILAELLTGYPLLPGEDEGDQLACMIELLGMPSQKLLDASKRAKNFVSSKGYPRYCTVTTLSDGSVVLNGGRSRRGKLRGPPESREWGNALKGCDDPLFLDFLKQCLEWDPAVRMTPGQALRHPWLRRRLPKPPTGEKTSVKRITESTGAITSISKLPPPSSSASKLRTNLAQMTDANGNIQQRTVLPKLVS

## CC[C@H](C)n1cc(C)c2c(C(=O)NCc3c(C)cc(C)[nH]c3=O)cc(-c3ccc(N4CCNCC4)nc3)cc21
[1]
  residual activity: 90.5%
[2]
  residual activity: 97%
[3]
  residual activity: 103%
[4]
  residual activity: 90%
[5]
  residual activity: 204%
[6]
  residual activity: 103%
[7]
  residual activity: 102%
[8]
  residual activity: 91.5%
[9]
  residual activity: 83%
[10]
  residual activity: 95.5%
[11]
  residual activity: 97%
[12]
  residual activity: 96.5%
[13]
  residual activity: 90.5%
[14]
  residual activity: 102%
[15]
  residual activity: 90.5%
[16]
  residual activity: 90.5%
[17]
  residual activity: 98.5%
[18]
  residual activity: 101%
[19]
  residual activity: 95.5%
[20]
  residual activity: 93.5%
[21]
  residual activity: 102%
[22]
  residual activity: 99.5%
[23]
  residual activity: 104%
[24]
  residual activity: 97%
[25]
  residual activity: 102%
[26]
  residual activity: 97.5%
[27]
  residual activity: 100%
[28]
  residual activity: 102%
[29]
  residual activity: 101%
[30]
  residual activity: 96%
[31]
  residual activity: 89.5%
[32]
  residual activity: 110%
[33]
  residual activity: 92%
[34]
  residual activity: 96.5%
[35]
  residual activity: 100%
[36]
  residual activity: 104%
[37]
  residual activity: 98%
[38]
  residual activity: 54%
[39]
  residual activity: 100%
[40]
  residual activity: 97.5%
[41]
  residual activity: 99%
[42]
  residual activity: 96.5%
[43]
  residual activity: 102%
[44]
  residual activity: 104%
